Target: T1, hDGAT1 (Homo sapiens, UniProt O75907)
T1 sequence (O75907 1-488): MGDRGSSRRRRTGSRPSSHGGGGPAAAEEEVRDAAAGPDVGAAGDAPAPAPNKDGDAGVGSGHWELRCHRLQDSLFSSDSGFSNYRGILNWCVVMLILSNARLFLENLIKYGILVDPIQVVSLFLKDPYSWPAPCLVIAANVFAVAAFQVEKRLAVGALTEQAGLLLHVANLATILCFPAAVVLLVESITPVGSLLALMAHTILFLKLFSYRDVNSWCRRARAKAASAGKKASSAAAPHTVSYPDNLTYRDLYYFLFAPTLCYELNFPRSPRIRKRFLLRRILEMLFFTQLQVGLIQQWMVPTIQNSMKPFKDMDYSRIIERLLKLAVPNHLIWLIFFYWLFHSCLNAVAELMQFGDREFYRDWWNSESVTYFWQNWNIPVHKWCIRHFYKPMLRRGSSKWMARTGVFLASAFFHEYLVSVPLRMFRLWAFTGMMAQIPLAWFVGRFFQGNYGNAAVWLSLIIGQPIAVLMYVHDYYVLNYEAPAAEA
Assay: In-vitro DGAT1 assay (14C oleoyl CoA, hDGAT1 microsomes from Sf9 cells)
Details: at 1 μM
Description: Sf9 cells were seeded in spinner flasks on day 0 at a cell density of 1×10^6 and infected on day 1 with hDGAT1 baculovirus at a multiplicity of infection (MOI) of 5 and a cell density of 2×10^6. On day 3 (or 66-72 h), cells were harvested and centrifuged at 2500×g for 10 min. Pellet was resuspended in lysis buffer (100 mM sucrose, 50 mM KCl, 40 mM KH2PO4, 30 mM EDTA, pH 7.2) and passed through 21-gauge needle approximately 10 times. […] The supernatant was subjected to centrifugation at 35,000 rpm in a Beckman Ti-45 rotor at 4° C. for 1 h. The resultant pellet containing the microsomes wasere resuspended overnight in 1 mL of lysis buffer and total protein concentration was estimated using Bradford Reagent. Microsomes were aliquoted and stored at −80° C.
Frozen aliquots of hDGAT1 containing microsomes were thawed (5-10 mg/mL total protein) on ice and diluted to a working stock of 1 mg/mL with DGAT Assay Buffer (DAB).
The assay was performed in duplicates in a reaction volume of 100 μL. […] Procedure:
The reaction was started by the addition of 2.5 μL of 1 mg/mL of microsomes (iv) to the mixture and incubated at 37° C. for 10 min. […] The mixture was vortexed and the triglycerides formed were extracted into the organic heptane phase.

Q: How did the “% Inhibition of hDGAT1” value turn out when CC(C)[C@@H](C(=O)O)N1Cc2ccc(-c3ccc(NC(=S)Nc4ccccc4C(F)(F)F)cc3)cc2C1=O [Example 66] was run?
A: Its value is “++ (>50% Inhibition)”.

Q: For O=C(Nc1ccc(-c2ccc3c(c2)C(=O)N(C2CCCC(C(=O)O)C2)C3)cc1)c1ccc(-c2ccccc2)cc1 (stereo not shown) [Example 545, 3-(6-(4-([1,1′-Biphenyl]-4-ylcarboxamido)phenyl)-1-oxoisoindolin-2-yl)cyclo hexane carboxylic acid], which “% Inhibition of hDGAT1” value is on record?
A: Its value is “++ (>50% Inhibition)”.

Same assay, conditions: read-out: % Inhibition of hDGAT1

Q: Which inhibition at 1 µM does the source give for CCCCCc1ccc(C(=O)Nc2ccc(-c3ccc4c(c3)CN([C@H](C(=O)O)C(C)C)C4=O)cc2)cc1 [Example 325, (S)-3-Methyl-2-(1-oxo-5-(4-(4-pentylbenzamido)phenyl)isoindolin-2-yl)butanoic acid] here?
A: Its inhibition at 1 µM is 10 to 50%.

Q: How did the inhibition at 1 µM turn out when CC(C)[C@@H](C(=O)O)N1Cc2cc(-c3ccc(NS(=O)(=O)c4ccc(F)cc4F)cc3)ccc2C1=O [Example 291, (S)-2-(5-(4-(2,4-Difluorophenylsulfonamido)phenyl)-1-oxoisoindolin-2-yl)-3-methylbutanoic acid] was run?
A: Its inhibition at 1 µM is 10 to 50%.

Q: For CC(C)[C@@H](C(=O)O)N1Cc2cc(-c3ccc(NC(=S)Nc4ccc(Cl)cc4)cc3)ccc2C1=O [Example 265, (S)-2-(5-(4-(3-(4-Chlorophenyl)thioureido)phenyl)-1-oxoisoindolin-2-yl)-3-methylbutanoic acid], which inhibition at 1 µM is on record?
A: Its inhibition at 1 µM is 10 to 50%.

Q: For CC(C)[C@@H](C(=O)O)N1Cc2ccc(-c3ccc(NC(=O)c4ccc(C(C)(C)C)cc4)nn3)cc2C1=O [Example 498, (S)-2-(6-(6-(4-tert-Butylbenzamido)pyridazin-3-yl)-1-oxoisoindolin-2-yl)-3-methylbutanoic acid], which inhibition at 1 µM is on record?
A: Its inhibition at 1 µM is greater than 50%.

Q: For COc1cc(NC(=O)c2ccc(OC(F)(F)F)cc2)ccc1-c1ccc2c(c1)C(=O)N([C@H](C(=O)O)C(C)C)C2 [Example 464, (S)-2-(6-(2-Methoxy-4-(4-(trifluoromethoxy)benzamido)phenyl)-1-oxoisoindolin-2-yl)-3-methylbutanoic acid], which inhibition at 1 µM is on record?
A: Its inhibition at 1 µM is 10 to 50%.

Q: CC(C)[C@@H](C(=O)O)N1Cc2ccc(-c3ccc(NC(=O)c4c(Cl)cccc4Cl)cc3)cc2C1=O [Example 130, (S)-2-(6-(4-(2,6-Dichlorobenzamido)phenyl)-1-oxoisoindolin-2-yl)-3-methyl butanoic acid] was tested. Which inhibition at 1 µM did it give?
A: Its inhibition at 1 µM is 10 to 50%.

Q: For CC(C)[C@@H](C(=O)O)N1Cc2cc(-c3ccc(NC(=O)c4cccc(Cl)c4)cc3)ccc2C1=O [Example 315, (S)-2-(5-(4-(3-Chlorobenzamido)phenyl)-1-oxoisoindolin-2-yl)-3-methylbutanoic acid], which inhibition at 1 µM is on record?
A: Its inhibition at 1 µM is 10 to 50%.

Q: Which inhibition at 1 µM does the source give for CC(C)(C)c1ccc(C(=O)Nc2ccc(-c3ccc4c(c3)C(=O)N(C(C)(C)C(=O)O)C4)cc2)cc1 [Example 519, 2-(6-(4-(4-(tert-Butyl)benzamido)phenyl)-1-oxoisoindolin-2-yl)-2-methyl propanoic acid] here?
A: The inhibition at 1 µM was greater than 50%.

Q: For CC(C)[C@@H](C(=O)O)N1Cc2ccc(-c3ccc(NC(=O)c4ccc(C(F)(F)F)c(F)c4)cc3)cc2C1=O [Example 196, (S)-2-(6-(4-(3-Fluoro-4-(trifluoromethyl)benzamido)phenyl)-1-oxoisoindolin-2-yl)-3-methylbutanoic acid], which inhibition at 1 µM is on record?
A: The inhibition at 1 µM was greater than 50%.

Q: CC(C)[C@@H](C(=O)O)N1Cc2ccc(-c3ccc(NC(=O)c4ccc(F)cc4C(F)(F)F)cc3)cc2C1=O [Example 198, (S)-2-(6-(4-(4-Fluoro-2-(trifluoromethyl)benzamido)phenyl)-1-oxoisoindolin-2-yl)-3-methylbutanoic acid] was tested. Which inhibition at 1 µM did it give?
A: The inhibition at 1 µM was 10 to 50%.

Q: Which inhibition at 1 µM does the source give for Cc1oc(-c2ccccc2)nc1C(=O)Nc1ccc(-c2ccc3c(c2)C(=O)N([C@H](C(=O)O)C(C)C)C3)nc1 [Example 655, (S)-3-Methyl-2-(6-(5-(5-methyl-2-phenyloxazole-4-carboxamido)pyridin-2-yl)-1-oxoisoindolin-2-yl)butanoic acid] here?
A: Its inhibition at 1 µM is greater than 50%.

Q: How did the inhibition at 1 µM turn out when CC(C)[C@@H](C(=O)O)N1Cc2cc(-c3ccc(NC(=O)NC4CCCCC4)cc3)ccc2C1=O [Example 235, (S)-2-(5-(4-(3-Cyclohexylureido)phenyl)-1-oxoisoindolin-2-yl)-3-methyl butanoic acid] was run?
A: Its inhibition at 1 µM is 10 to 50%.

Q: COc1ccccc1NC(=S)Nc1ccc(-c2ccc3c(c2)CN([C@H](C(=O)O)C(C)C)C3=O)cc1 [Example 281, (S)-2-(5-(4-(3-(2-Methoxyphenyl)thioureido)phenyl)-1-oxoisoindolin-2-yl)-3-methylbutanoic acid] was tested. Which inhibition at 1 µM did it give?
A: The inhibition at 1 µM was greater than 50%.

Q: CC(C)[C@@H](C(=O)O)N1Cc2cc(-c3ccc(NC(=O)Nc4ccccc4F)cc3)ccc2C1=O [Example 227, (S)-2-(5-(4-(3-(2-Fluorophenyl)ureido)phenyl)-1-oxoisoindolin-2-yl)-3-methyl butanoic acid] was tested. Which inhibition at 1 µM did it give?
A: Its inhibition at 1 µM is greater than 50%.

Q: With CC(C)[C@@H](C(=O)O)N1Cc2cc(-c3ccc(NS(=O)(=O)C4CCCCC4)cc3)ccc2C1=O [Example 303, (S)-2-(5-(4-(Cyclohexanesulfonamido)phenyl)-1-oxoisoindolin-2-yl)-3-methylbutanoic acid] as the molecule, how does the inhibition at 1 µM read?
A: The inhibition at 1 µM was 10 to 50%.

Q: Which inhibition at 1 µM does the source give for O=C(O)CCCN1Cc2ccc(-c3ccc(NC(=O)Nc4cccc(C(F)(F)F)c4)cc3)cc2C1=O [Example 349, 4-(1-Oxo-6-(4-(3-(3-(trifluoromethyl)phenyl)ureido)phenyl)isoindolin-2-yl)butanoic acid] here?
A: The inhibition at 1 µM was 10 to 50%.

Q: With CC(C)[C@@H](C(=O)O)N1Cc2ccc(-c3ccc(NC(=O)c4ccc(C(F)(F)F)cc4F)cc3)cc2C1=O [Example 192, (S)-2-(6-(4-(2-Fluoro-4-(trifluoromethyl)benzamido)phenyl)-1-oxoisoindolin-2-yl)-3-methylbutanoic acid] as the molecule, how does the inhibition at 1 µM read?
A: The inhibition at 1 µM was greater than 50%.

Q: How did the inhibition at 1 µM turn out when CC(C)[C@@H](C(=O)O)N1Cc2cc(-c3ccc(NC(=S)Nc4cccc(C(F)(F)F)c4)cc3)ccc2C1=O [Example 283, (S)-3-Methyl-2-(1-oxo-5-(4-(3-(3-(trifluoromethyl)phenyl)thioureido)phenyl)isoindolin-2-yl)butanoic acid] was run?
A: The inhibition at 1 µM was greater than 50%.

Q: How did the inhibition at 1 µM turn out when CCCCCc1ccc(C(=O)Nc2ccc(-c3ccc4c(c3)C(=O)N([C@H](C(=O)O)C(C)C)C4)c(OC)c2)cc1 [Example 462, (S)-2-(6-(2-Methoxy-4-(4-pentylbenzamido)phenyl)-1-oxoisoindolin-2-yl)-3-methylbutanoic acid] was run?
A: The inhibition at 1 µM was 10 to 50%.

Q: Which inhibition at 1 µM does the source give for Cc1ccc(C(=O)Nc2ccc(-c3ccc4c(c3)C(=O)N(C3(C(=O)O)CCC3)C4)cc2)cc1 [Example 582, 1-(6-(4-(4-Methylbenzamido)phenyl)-1-oxoisoindolin-2-yl)cyclobutane carboxylic acid] here?
A: The inhibition at 1 µM was greater than 50%.

Q: How did the inhibition at 1 µM turn out when CC(C)[C@@H](C(=O)O)N1Cc2ccc(-c3ccc(NC(=O)c4ccc5ccccc5c4)cc3)cc2C1=O [Example 122, (S)-2-(6-(4-(2-Naphthamido)phenyl)-1-oxoisoindolin-2-yl)-3-methylbutanoic acid] was run?
A: Its inhibition at 1 µM is greater than 50%.

Q: How did the inhibition at 1 µM turn out when CCCCc1ccc(C(=O)Nc2ccc(-c3ccc4c(c3)C(=O)N([C@H](C(=O)O)C(C)C)C4)cc2)nc1 [Example 649, (S)-2-(6-(4-(5-Butylpicolinamido)phenyl)-1-oxoisoindolin-2-yl)-3-methylbutanoic acid] was run?
A: The inhibition at 1 µM was greater than 50%.

Q: With CC(C)[C@@H](C(=O)O)N1Cc2ccc(-c3ccc(NC(=O)Nc4ccc(F)c(F)c4)c(F)c3)cc2C1=O [Example 440, (S)-2-(6-(4-(3-(3,4-Difluorophenyl)ureido)-3-fluorophenyl)-1-oxoisoindolin-2-yl)-3-methylbutanoic acid] as the molecule, how does the inhibition at 1 µM read?
A: Its inhibition at 1 µM is greater than 50%.

— patent US8748426B2, “Inhibitors of diacylglycerol acyl transferase” (Piramal Enterprises Limited, priority 2009, dated 2014)
